In patent US20060263305A1, “Biofilm removing agent for removing a biofilm” (priority 2003, published 2006):

Columns and labels:
[1] = tested on: biofilm formed by periodontal pathogens; assay: biofilm inhibition ratio (inhibiting formation of the biofilm) in a glass vessel; assay type: cell-based, periodontal pathogens (gram-negative bacteria); details: 1 mg in 100 ml distilled water, added together with the pathogens; read after 24 hours; relative to distilled water alone; FIG. 2
Method: Periodontal pathogens were put in a glass vessel together with a biofilm removing agent containing 1 mg of azithromycin as a medical agent dissolved in 100 ml of distilled water. After lapse of 24 hours, an inhibition ratio of the biofilm to be formed by the periodontal pathogens was examined.
Further, the biofilm inhibition ratio of the biofilm removing agent containing azithromycin according to this invention was evaluated in comparison with the biofilm inhibition ration of each of minocycline, erythromycin, and josamycin. Specifically, each of minocycline, erythromycin, and josamycin was put into a glass vessel together with periodontal pathogens and distilled water. After lapse of 24 hours, the biofilm inhibition ratio of the biofilm formed by the periodontal pathogens was examined.
The content of each of minocycline, erythromycin, and josamycin in the distilled water was equal to that of the biofilm removing agent containing azithromycin.
In FIG. 2, the biofilm inhibition ratio of each of azithromycin, minocycline, erythromycin, and josamycin is a ratio of a part without the biofilm with respect to an entire biofilm formed by the periodontal pathogens in presence of distilled water alone without any antibiotic.

[2] = compared with 14-membered ring macrolide antibiotics; stated without a test; cited from earlier work
[3] = tested on: biofilm formed by periodontal pathogens; assay: biofilm destruction ratio on a preformed biofilm in a glass vessel; assay type: cell-based, periodontal pathogens (gram-negative bacteria); details: 1 mg in 100 ml distilled water; biofilm formed for 24 hours; read after 24 hours; relative to distilled water alone; FIG. 1
Method: Periodontal pathogens were put in a glass vessel and left for 24 hours to form a biofilm. Then, a solution of a biofilm removing agent containing 1 mg of azithromycin as a medical agent dissolved in 100 ml of distilled water was supplied into the glass vessel. After lapse of 24 hours, a destruction ratio of the biofilm formed by the periodontal pathogens was examined. Further, the biofilm destruction ratio of the biofilm removing agent containing azithromycin according to this invention was evaluated in comparison with the biofilm destruction ratio of each of minocycline, erythromycin, and josamycin. Specifically, each of minocycline, erythromycin, and josamycin was supplied together with distilled water into a glass vessel in which the biofilm was formed. After lapse of 24 hours, the destruction ratio of the biofilm formed by the periodontal pathogens was examined. The content of each of minocycline, erythromycin, and josamycin in the distilled water was equal to that of the biofilm removing agent containing azithromycin. […] In FIG. 1, the biofilm destruction ratio by each of azithromycin, minocycline, erythromycin, and josamycin is a ratio of a destroyed or lost part of the biofilm with respect to a biofilm formed by the periodontal pathogens and supplied with distilled water alone without any antibiotic.

[4] = compared with 14-membered ring macrolide antibiotics; stated without a test; cited from earlier work; remark: listed apart in the source
[5] = tested on: hepatic metabolic enzymes; details: compared with 14-membered ring macrolide antibiotics; stated without a test; cited from earlier work

| Structure (SMILES) | biofilm inhibition ratio (adhesion prevention ratio of gram-negative bacteria) [1] | stability against gastric acid [2] | biofilm destruction ratio (destruction ratio of gram-negative bacteria) [3] | digestive side effect [4] | activation of hepatic metabolic enzymes [5] |
| --- | --- | --- | --- | --- | --- |
| CC[C@H]1OC(=O)[C@H](C)[C@@H](O[C@H]2C[C@@](C)(OC)[C@@H](O)[C@H](C)O2)[C@H](C)[C@@H](O[C@@H]2O[C@H](C)C[C@H](N(C)C)[C@H]2O)[C@](C)(O)C[C@@H](C)CN(C)[C@H](C)[C@@H](O)[C@]1(C)O [azithromycin] | about 45% | considerably stable | about 60% | equivalent | extremely small level |
| CC[C@H]1OC(=O)[C@H](C)[C@@H](O[C@H]2C[C@@](C)(OC)[C@@H](O)[C@H](C)O2)[C@H](C)[C@@H](O[C@@H]2O[C@H](C)C[C@H](N(C)C)[C@H]2O)[C@](C)(O)C[C@@H](C)C(=O)[C@H](C)[C@@H](O)[C@]1(C)O [erythromycin] | about 40% | – | about 35% | – | – |
| CO[C@@H]1[C@@H](O[C@@H]2O[C@H](C)[C@@H](O[C@H]3C[C@@](C)(O)[C@@H](OC(=O)CC(C)C)[C@H](C)O3)[C@H](N(C)C)[C@H]2O)[C@@H](CC=O)C[C@@H](C)[C@@H](O)/C=C/C=C/C[C@@H](C)OC(=O)C[C@H]1OC(C)=O [josamycin] | about 35% | – | about 25% | – | – |
| CN(C)c1ccc(O)c2c1C[C@H]1C[C@H]3[C@H](N(C)C)C(O)=C(C(N)=O)C(=O)[C@@]3(O)C(O)=C1C2=O [minocycline] | about 23% | – | about 10% | – | – |
